Reference: patent US20250353891A1 (MEDIMMUNE LIMITED, priority 2022, published 2025)
Starred links: 1 amine or outer side, 2 acyl side, 3 side chain; linkers in the order of their positions; H or OH if unused. Non-standard residues stand in square brackets, D forms with d. Residues, ends and D or L forms follow the SMILES beside them. Groups on a side chain read outwards from the residue. *: point of attachment. C18 diacid = O=C(O)CCCCCCCCCCCCCCCCC(=O)*; γGlu = O=C(O)[C@H](CCC(=O)[*:2])N[*:1]; αMeF = C[C@](N)(Cc1ccccc1)C(=O)O; Ac4c = NC1(C(=O)O)CCC1; AEEA = NCCOCCOCC(=O)O; Aib = CC(C)(N)C(=O)O

Tests used:
[1] = target: human GLP-1 receptor (hGLP-1R) (Homo sapiens, UniProt P43220); assay: cAMP production (HTRF) in CHO cells expressing hGLP-1R; type: cell-based; design: expressed in transfected cells; details: for EC50: Table 7, peptides modified at position 20, cAMP in CHO hGLP-1R cells, geometric mean, read-out: hGLP-1R EC50; for % Relative Potency Ratio: Table 7, % GLP-1R activity relative to GLP-1 / % GlucR activity relative to glucagon
In short: (§1)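 Cells were resuspended in assay buffer at batch-optimized density, typically 1×10^5 cells/mL for hGLP-1R and 2×10^5 cells/mL for hGCGR. After 30 min incubation at room temperature with compound, cAMP was measured by two-step HTRF. EC50 values came from 4-parameter logistic fits of % Delta F.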

[2] = target: human glucagon receptor (hGCGR) (Homo sapiens, UniProt P47871); assay: cAMP production (HTRF) in CHO cells expressing hGCGR; type: cell-based; design: expressed in transfected cells; details: Table 7, peptides modified at position 20; cAMP in CHO hGCGR cells; geometric mean; read-out: hGluc-R EC50
In short: as §1

Chain of human glucagon receptor (hGCGR) (P47871 26-477): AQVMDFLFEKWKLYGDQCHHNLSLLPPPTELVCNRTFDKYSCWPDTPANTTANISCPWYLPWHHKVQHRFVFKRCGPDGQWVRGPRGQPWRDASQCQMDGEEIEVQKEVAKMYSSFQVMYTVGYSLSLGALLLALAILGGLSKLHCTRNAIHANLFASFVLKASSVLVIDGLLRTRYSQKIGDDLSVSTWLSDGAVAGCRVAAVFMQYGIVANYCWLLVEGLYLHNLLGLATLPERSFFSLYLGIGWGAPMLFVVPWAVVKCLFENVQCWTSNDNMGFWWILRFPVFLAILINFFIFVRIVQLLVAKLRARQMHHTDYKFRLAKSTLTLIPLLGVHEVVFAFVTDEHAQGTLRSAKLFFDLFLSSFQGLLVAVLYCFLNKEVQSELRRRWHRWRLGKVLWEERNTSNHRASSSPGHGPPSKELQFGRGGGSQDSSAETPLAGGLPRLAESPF
Chain of human GLP-1 receptor (hGLP-1R) (P43220 24-463): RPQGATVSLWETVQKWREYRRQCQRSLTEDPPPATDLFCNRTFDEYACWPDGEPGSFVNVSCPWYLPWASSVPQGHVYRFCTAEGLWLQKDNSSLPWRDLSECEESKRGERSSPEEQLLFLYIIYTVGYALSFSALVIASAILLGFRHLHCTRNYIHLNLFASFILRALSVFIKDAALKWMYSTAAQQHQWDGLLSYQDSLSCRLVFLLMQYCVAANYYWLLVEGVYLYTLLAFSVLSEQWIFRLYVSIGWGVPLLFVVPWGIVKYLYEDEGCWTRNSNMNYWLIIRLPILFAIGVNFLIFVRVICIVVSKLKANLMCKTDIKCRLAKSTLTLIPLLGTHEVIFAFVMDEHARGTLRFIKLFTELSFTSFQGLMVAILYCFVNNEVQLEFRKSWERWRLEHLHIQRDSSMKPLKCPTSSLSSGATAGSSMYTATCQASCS

| EC50 [1] | % Relative Potency Ratio [1] | EC50 [2] | SMILES |
| --- | --- | --- | --- |
| 0.0154 nM | 218.8 | 1.7 nM | CC[C@H](C)[C@H](NC(=O)C(C)(C)NC(=O)[C@H](CCC(N)=O)NC(=O)[C@@H](NC(=O)[C@](C)(Cc1ccccc1)NC(=O)[C@H](CC(=O)O)NC(=O)[C@H](CCCCNC(=O)COCCOCCNC(=O)COCCOCCNC(=O)CC[C@H](NC(=O)CCCCCCCCCCCCCCCCC(=O)O)C(=O)O)NC(=O)[C@H](C)NC(=O)[C@H](C)NC(=O)[C@H](CCCNC(=N)N)NC(=O)[C@H](CO)NC(=O)[C@H](CC(=O)O)NC(=O)[C@H](CC(C)C)NC(=O)[C@](C)(Cc1ccccc1)NC(=O)[C@H](CCCCN)NC(=O)[C@H](CO)NC(=O)[C@@H](NC(=O)[C@H](CC(=O)O)NC(=O)[C@H](CO)NC(=O)[C@@H](NC(=O)[C@](C)(Cc1ccccc1)NC(=O)[C@H](CO)NC(=O)CNC(=O)[C@H](CCC(N)=O)NC(=O)C1(NC(=O)[C@@H](N)Cc2c[nH]cn2)CCC1)[C@@H](C)O)C(C)C)C(C)C)C(=O)N[C@@H](C)C(=O)N[C@@H](CC(N)=O)C(=O)N[C@H](C(N)=O)[C@@H](C)O [Peptide 328] (H-H[Ac4c]QGS[αMeF]TSDVSK[αMeF]LDSRAAK([AEEA-AEEA-γGlu-C18 diacid])D[αMeF]VQ[Aib]IANT-NH2; N-terminus assumed) |
| 0.488 nM | – | > 25.6 nM | CC[C@H](C)[C@H](NC(=O)C(C)(C)NC(=O)[C@H](CCC(N)=O)NC(=O)[C@@H](NC(=O)[C@](C)(Cc1ccccc1)NC(=O)[C@H](CC(=O)O)NC(=O)[C@H](CCCCNC(=O)COCCOCCNC(=O)COCCOCCNC(=O)CC[C@H](NC(=O)CCCCCCCCCCCCCCCCC(=O)O)C(=O)O)NC(=O)[C@H](C)NC(=O)[C@H](C)NC(=O)[C@H](CCCNC(=N)N)NC(=O)[C@H](CO)NC(=O)[C@H](CC(=O)O)NC(=O)[C@H](CC(C)C)NC(=O)[C@](C)(Cc1ccccc1)NC(=O)[C@H](CCCCN)NC(=O)[C@H](CO)NC(=O)[C@@H](NC(=O)[C@H](CC(=O)O)NC(=O)[C@H](CO)NC(=O)[C@@H](NC(=O)[C@](C)(Cc1ccccc1)NC(=O)[C@H](CO)NC(=O)CNC(=O)[C@H](CCC(N)=O)NC(=O)[C@@H](CO)NC(=O)[C@@H](N)Cc1c[nH]cn1)[C@@H](C)O)C(C)C)C(C)C)C(=O)N[C@@H](C)C(=O)N[C@@H](CC(N)=O)C(=O)N[C@H](C(N)=O)[C@@H](C)O [Peptide 330] (H-H[dS]QGS[αMeF]TSDVSK[αMeF]LDSRAAK([AEEA-AEEA-γGlu-C18 diacid])D[αMeF]VQ[Aib]IANT-NH2) |
| 0.0626 nM | 2.1 | 0.0666 nM | CC(C)C[C@H](NC(=O)[C@H](Cc1c[nH]c2ccccc12)NC(=O)[C@H](CCCNC(=N)N)NC(=O)[C@@H](NC(=O)[C@H](Cc1ccccc1)NC(=O)[C@H](CC(=O)O)NC(=O)[C@H](CCCCNC(=O)COCCOCCNC(=O)COCCOCCNC(=O)CC[C@H](NC(=O)CCCCCCCCCCCCCCCCC(=O)O)C(=O)O)NC(=O)[C@H](C)NC(=O)[C@H](CCCNC(=N)N)NC(=O)[C@H](CCCNC(=N)N)NC(=O)[C@H](CO)NC(=O)[C@H](CC(=O)O)NC(=O)[C@H](CC(C)C)NC(=O)[C@](C)(Cc1ccccc1)NC(=O)[C@H](CCCCN)NC(=O)[C@H](CO)NC(=O)[C@@H](NC(=O)[C@H](CC(=O)O)NC(=O)[C@H](CO)NC(=O)[C@@H](NC(=O)[C@H](Cc1ccccc1)NC(=O)[C@@H](NC(=O)CNC(=O)[C@H](CCC(N)=O)NC(=O)C(C)(C)NC(=O)[C@@H](N)Cc1c[nH]cn1)[C@@H](C)O)[C@@H](C)O)C(C)C)C(C)C)C(=O)N[C@@H](CC(C)C)C(=O)N[C@@H](CCC(=O)O)C(=O)NC(C)(C)C(=O)NCC(=O)O [Peptide 331] |
| 0.0775 nM | 1.5 | 0.0589 nM | CC(C)C[C@H](NC(=O)[C@H](Cc1c[nH]c2ccccc12)NC(=O)[C@H](CCC(N)=O)NC(=O)[C@@H](NC(=O)[C@H](Cc1ccccc1)NC(=O)[C@H](CC(=O)O)NC(=O)[C@H](CCCCNC(=O)COCCOCCNC(=O)COCCOCCNC(=O)CC[C@H](NC(=O)CCCCCCCCCCCCCCCCC(=O)O)C(=O)O)NC(=O)[C@H](C)NC(=O)[C@H](CCCNC(=N)N)NC(=O)[C@H](CCCNC(=N)N)NC(=O)[C@H](CO)NC(=O)[C@H](CC(=O)O)NC(=O)[C@H](CC(C)C)NC(=O)[C@](C)(Cc1ccccc1)NC(=O)[C@H](CCCCN)NC(=O)[C@H](CO)NC(=O)[C@@H](NC(=O)[C@H](CC(=O)O)NC(=O)[C@H](CO)NC(=O)[C@@H](NC(=O)[C@H](Cc1ccccc1)NC(=O)[C@@H](NC(=O)CNC(=O)[C@H](CCC(N)=O)NC(=O)C(C)(C)NC(=O)[C@@H](N)Cc1c[nH]cn1)[C@@H](C)O)[C@@H](C)O)C(C)C)C(C)C)C(=O)N[C@@H](CC(C)C)C(=O)N[C@@H](CCC(=O)O)C(=O)NC(C)(C)C(=O)NCC(=O)O [Peptide 332] |
| 0.135 nM | 3.1 | 0.213 nM | CC(C)C[C@H](NC(=O)[C@H](Cc1c[nH]c2ccccc12)NC(=O)[C@H](CCC(N)=O)NC(=O)[C@@H](NC(=O)[C@H](Cc1ccccc1)NC(=O)[C@H](CC(=O)O)NC(=O)[C@H](CCCCNC(=O)COCCOCCNC(=O)COCCOCCNC(=O)CC[C@H](NC(=O)CCCCCCCCCCCCCCCCC(=O)O)C(=O)O)NC(=O)[C@H](C)NC(=O)[C@H](CCCNC(=N)N)NC(=O)[C@H](CCCNC(=N)N)NC(=O)[C@H](CO)NC(=O)[C@H](CC(=O)O)NC(=O)[C@H](CC(C)C)NC(=O)[C@](C)(Cc1ccccc1)NC(=O)[C@H](CCCCN)NC(=O)[C@H](CO)NC(=O)[C@@H](NC(=O)[C@H](CC(=O)O)NC(=O)[C@H](CO)NC(=O)[C@@H](NC(=O)[C@H](Cc1ccccc1)NC(=O)[C@@H](NC(=O)CNC(=O)[C@H](CCC(N)=O)NC(=O)C(C)(C)NC(=O)[C@@H](N)Cc1c[nH]cn1)[C@@H](C)O)[C@@H](C)O)C(C)C)C(C)C)C(=O)N[C@@H](CC(C)C)C(=O)NC(C)(C)C(=O)N[C@H](C(=O)N[C@@H](CCC(=O)O)C(=O)O)[C@@H](C)O [Peptide 333] |
| 0.25 nM | 3.7 | 0.462 nM | CC(C)C[C@H](NC(=O)[C@H](Cc1c[nH]c2ccccc12)NC(=O)[C@H](CCC(N)=O)NC(=O)[C@@H](NC(=O)[C@H](Cc1ccccc1)NC(=O)[C@H](CC(=O)O)NC(=O)[C@H](CCCCNC(=O)CC[C@H](NC(=O)CCCCCCCCCCCCCCCCC(=O)O)C(=O)O)NC(=O)[C@H](C)NC(=O)[C@H](CCCNC(=N)N)NC(=O)[C@H](CCCNC(=N)N)NC(=O)[C@H](CO)NC(=O)[C@H](CC(=O)O)NC(=O)[C@H](CC(C)C)NC(=O)[C@](C)(Cc1ccccc1)NC(=O)[C@H](CCCCN)NC(=O)[C@H](CO)NC(=O)[C@H](Cc1ccc(O)cc1)NC(=O)[C@H](CC(=O)O)NC(=O)[C@H](CO)NC(=O)[C@@H](NC(=O)[C@H](Cc1ccccc1)NC(=O)[C@@H](NC(=O)CNC(=O)[C@H](CCC(N)=O)NC(=O)C(C)(C)NC(=O)[C@@H](N)Cc1c[nH]cn1)[C@@H](C)O)[C@@H](C)O)C(C)C)C(=O)N[C@@H](C)C(=O)NC(C)(C)C(=O)N[C@@H](CCC(=O)O)C(=O)O [Peptide 334] |
| 1.06 nM | 0.6 | 0.312 nM | CC(C)C[C@H](NC(=O)[C@H](Cc1c[nH]c2ccccc12)NC(=O)[C@H](CCC(N)=O)NC(=O)[C@@H](NC(=O)[C@H](Cc1ccccc1)NC(=O)[C@H](CC(=O)O)NC(=O)[C@H](CCCCNC(=O)CC[C@H](NC(=O)CCCCCCCCCCCCCCCCC(=O)O)C(=O)O)NC(=O)[C@H](C)NC(=O)[C@H](CCCNC(=N)N)NC(=O)[C@H](CCCNC(=N)N)NC(=O)[C@H](CO)NC(=O)[C@H](CC(=O)O)NC(=O)[C@H](CC(C)C)NC(=O)[C@](C)(Cc1ccccc1)NC(=O)[C@H](CCCCN)NC(=O)[C@H](CO)NC(=O)[C@H](Cc1ccc(O)cc1)NC(=O)[C@H](CC(=O)O)NC(=O)[C@H](CO)NC(=O)[C@@H](NC(=O)[C@H](Cc1ccccc1)NC(=O)[C@@H](NC(=O)CNC(=O)[C@H](CCC(N)=O)NC(=O)C(C)(C)NC(=O)[C@@H](N)Cc1c[nH]cn1)[C@@H](C)O)[C@@H](C)O)C(C)C)C(=O)N[C@@H](CC(C)C)C(=O)N[C@@H](CCC(=O)O)C(=O)NC(C)(C)C(=O)NCC(=O)O [Peptide 335] |
| 0.632 nM | 1.0 | 0.305 nM | CC[C@H](C)[C@H](NC(=O)[C@H](CC(C)C)NC(=O)[C@H](Cc1c[nH]c2ccccc12)NC(=O)[C@H](CCC(N)=O)NC(=O)[C@@H](NC(=O)[C@H](Cc1ccccc1)NC(=O)[C@H](CC(=O)O)NC(=O)[C@H](CCCCNC(=O)CC[C@H](NC(=O)CCCCCCCCCCCCCCCCC(=O)O)C(=O)O)NC(=O)[C@H](C)NC(=O)[C@H](CCCNC(=N)N)NC(=O)[C@H](CCCNC(=N)N)NC(=O)[C@H](CO)NC(=O)[C@H](CC(=O)O)NC(=O)[C@H](CC(C)C)NC(=O)[C@](C)(Cc1ccccc1)NC(=O)[C@H](CCCCN)NC(=O)[C@H](CO)NC(=O)[C@H](Cc1ccc(O)cc1)NC(=O)[C@H](CC(=O)O)NC(=O)[C@H](CO)NC(=O)[C@@H](NC(=O)[C@H](Cc1ccccc1)NC(=O)[C@@H](NC(=O)CNC(=O)[C@H](CCC(N)=O)NC(=O)C(C)(C)NC(=O)[C@@H](N)Cc1c[nH]cn1)[C@@H](C)O)[C@@H](C)O)C(C)C)C(=O)N[C@@H](CO)C(=O)N[C@@H](CCC(=O)O)C(=O)O [Peptide 336] (H-H[Aib]QGTFTSDYSK[αMeF]LDSRRAK([γGlu-C18 diacid])DFVQWLISE-OH; N-terminus assumed) |
